Measured values reported in patent publication US20240041042A1, “1-(PYRIDYL)-5-AZINYLPYRAZOLE DERIVATIVES, AND THEIR USE FOR CONTROL OF UNDESIRED PLANT GROWTH” (Bayer Aktiengesellschaft, priority 2020, published 2024).
Where two headings read alike, the source gives them in different places.

Tests used:
Type in all cases: in vivo
[1] = test system: Abutilon theophrasti (ABUTH); assay: Post-emergence herbicidal action against ABUTH; settings: visual rating about 3 weeks after treatment vs untreated controls (100% = plants have died, 0% = like control plants)
Procedure, shortened: (§1)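 Greenhouse plants sprayed at the one-leaf stage, 2–3 weeks after sowing, with WP or EC formulations plus 0.5% additive at 600 l/ha water. Activity rated visually after about 3 weeks versus untreated controls (100% = dead, 0% = like control), at 320 g/ha or lower.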

[2] = test system: Verconica persica (VERPE); assay: Post-emergence herbicidal action against VERPE
Procedure, shortened: as §1

Viola tricolor (VIOTR) [3] = assay: Post-emergence herbicidal action against VIOTR
Procedure, shortened: as §1

[4] = test system: Triticum aestivum (TRZAS); settings: crop plant compatibility, effect vs untreated controls
Procedure, shortened: (§2)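 Test crops were treated 2 to 3 weeks after sowing, once they reached one leaf, by spraying compound in water with 0.5% additive at 600 l/ha. Visual scoring compared them with untreated controls roughly 3 weeks on, and appendices a, b and c denote different doses.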

Zea mays (ZEAMX) = settings: for Post-emergence action against ZEAMX in % (crop plant compatibility): 20 g/ha, effect in comparison to untreated controls; for Post-emergence action against ZEAMX in %: crop plant compatibility, effect vs untreated controls
Procedure, shortened: as §2

[5] = test system: Alopecurus myosuroides (ALOMY); assay: Post-emergence herbicidal action against ALOMY; settings: visual rating about 3 weeks after treatment vs untreated controls (100% = plants have died, 0% = like control plants)
Procedure, shortened: as §1

[6] = test system: Amaranthus retroflexus (AMARE); assay: Post-emergence herbicidal action against AMARE
Procedure, shortened: as §1

Avena fatua (AVEFA) = assay: Post-emergence herbicidal action against AVEFA; settings: visual rating about 3 weeks after treatment
Procedure, shortened: as §1

[7] = test system: Echinochloa crus-galli (ECHCG); assay: Post-emergence herbicidal action against ECHCG
Procedure, shortened: as §1

[8] = test system: Pharbitis purpurea (PHBPU); assay: Post-emergence herbicidal action against PHBPU
Procedure, shortened: as §1

[9] = test system: Polygonum convolvulus (POLCO); assay: Post-emergence herbicidal action against POLCO
Procedure, shortened: as §1

Setaria viridis (SETVI) = assay: Post-emergence herbicidal action against SETVI
Procedure, shortened: as §1

Oryza sativa (ORYSA) = settings: crop plant compatibility
Procedure, shortened: as §2

[10] = test system: Digitaria sanguinalis (DIGSA); assay: Post-emergence herbicidal action against DIGSA; settings: visual rating about 3 weeks after treatment
Procedure, shortened: as §1

Lolium rigidum (LOLRI) = assay: Post-emergence herbicidal action against LOLRI
Procedure, shortened: as §1

[11] = test system: Matricaria inodora (MATIN); assay: Post-emergence herbicidal action against MATIN; settings: dosage 320 g/ha
Procedure, shortened: as §1

[12] = test system: Amaranthus retroflexus (AMARE); assay: Pre-emergence herbicidal action against AMARE; settings: 320 g/ha, visual scoring after about 3 weeks vs untreated controls
Procedure, shortened: (§3)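 Pre-emergence soil-surface spray of compound, formulated as wettable powder or emulsion concentrate, in aqueous suspension or emulsion with 0.5% additive (600 l/ha; rate 320 g/ha or less). Activity rated visually after roughly 3 weeks in the greenhouse as a percentage of untreated controls, 0% meaning no difference.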

[13] = test system: Echinochloa crus-galli (ECHCG); assay: Pre-emergence herbicidal action against ECHCG; settings: dosage 320 g/ha
Procedure, shortened: as §3

[14] = test system: Polygonum convolvulus (POLCO); assay: Pre-emergence herbicidal action against POLCO; settings: dosage 320 g/ha
Procedure, shortened: as §3

[15] = test system: Verconica persica (VERPE); assay: Pre-emergence herbicidal action against VERPE; settings: dosage 320 g/ha
Procedure, shortened: as §3

Viola tricolor (VIOTR) [16] = assay: Pre-emergence herbicidal action against VIOTR; settings: 320 g/ha, Viola tricolor
Procedure, shortened: as §3

[17] = 320 g/ha, visual rating about 3 weeks after treatment
[18] = 20 g/ha, effect vs untreated controls
[19] = 80 g/ha, effect in comparison to untreated controls
[20] = 320 g/ha, effect in comparison to untreated controls

Post-emergence action against TRZAS in % ([4]; 20 g/ha) | Post-emergence action against TRZAS in % ([4]; 80 g/ha) | Post-emergence action against ZEAMX in % (crop plant compatibility) (Zea mays (ZEAMX)) | Post-emergence action against ZEAMX in % (Zea mays (ZEAMX); 80 g/ha) | Post-emergence action against ORYSA in % (Oryza sativa (ORYSA); [18]) | Post-emergence action against ORYSA in % (Oryza sativa (ORYSA); [19]) | Post-emergence action against ORYSA in % (Oryza sativa (ORYSA); [20]) | Post-emergence action against ZEAMX in % (Zea mays (ZEAMX); 320 g/ha) | Compound | Post-emergence action against ABUTH in % ([1]; 320 g/ha) | Post-emergence action against VERPE in % ([2]; 320 g/ha, VERPE) | Post-emergence action against VIOTR in % (Viola tricolor (VIOTR) [3]; 80 g/ha) | Post-emergence action against VIOTR in % (Viola tricolor (VIOTR) [3]; 320 g/ha) | Post-emergence action against ALOMY in % ([5]; 320 g/ha) | Post-emergence action against AMARE in % [6, 17] | Post-emergence action against AVEFA in % (Avena fatua (AVEFA); 320 g/ha) | Post-emergence action against ECHCG in % ([7]; dosage 320 g/ha) | Post-emergence action against PHBPU in % ([8]; dosage 320 g/ha) | Post-emergence action against POLCO in % ([9]; dosage 320 g/ha) | Post-emergence action against SETVI in % (Setaria viridis (SETVI); dosage 320 g/ha) | Post-emergence action against VERPE in % ([2]; dosage 80 g/ha) | other results
0% | 0% | 0% | 20% |  |  |  |  | O=C(O)COc1nn(-c2ccccn2)c(-c2ccc(F)nc2)c1C1CC1(F)F (stereo not drawn) [Example I-249] | 80% | 80% | 80% | 80% |  |  |  |  |  |  |  |  | Post-emergence action against TRZAS in % ([4]; 320 g/ha): 0%
0% | 20% | 0% | 0% | 0% | 0% | 0% | 10% | COCCOC(=O)COc1nn(-c2cccnc2C)c(-c2cncc(F)c2)c1Br [II-40] | 80% | 90% | 90% | 90% | 90% | 80% | 90% | 90% | 80% | 80% | 90% | 80% | Post-emergence action against POLCO in % ([9]; dosage 80 g/ha): 80%
0% | 0% | 0% | 0% |  |  |  |  | COC(=O)C(C)COC(=O)COc1nn(-c2ncccc2C(F)(F)F)c(-c2ccc(F)nc2)c1C1CC1(F)F (stereo not drawn) [Example I-268] | 80% | 80% | 80% | 80% |  |  |  |  | 80% |  |  |  | 
0% | 0% | 0% | 0% |  |  |  |  | COC(=O)CCOC(=O)COc1nn(-c2ccccn2)c(-c2ccc(F)nc2)c1C1CC1(F)F (stereo not drawn) [Example I-248] |  | 80% | 80% | 80% |  |  |  |  | 90% |  |  |  | 
0% | 20% | 0% | 0% | 0% | 0% | 0% | 20% | Cc1ncccc1-n1nc(OCC(=O)OCc2ccccn2)c(Br)c1-c1cncc(F)c1 [II-39] | 80% | 90% | 80% | 90% | 90% | 80% | 90% | 90% | 90% |  | 90% | 80% | 
 |  | 0% | 10% | 0% | 20% |  |  | COCCOC(=O)COc1nn(-c2ncccc2F)c(-c2ccc(F)nc2)c1C1CC1 [Example I-314] | 80% | 90% | 90% | 90% | 90% | 90% | 90% | 90% | 90% | 90% | 90% | 90% | Post-emergence action against ABUTH in % ([1]; 80 g/ha): 80%; Post-emergence action against ALOMY in % ([5]; 80 g/ha): 90%; Post-emergence action against AMARE in % ([6]; 80 g/ha, visual rating about 3 weeks after treatment vs untreated controls (100% = plants have died, 0% = like control plants)): 90%; Post-emergence action against AVEFA in % (Avena fatua (AVEFA); 80 g/ha): 90%; Post-emergence action against DIGSA in % ([10]; 80 g/ha): 90%; Post-emergence action against DIGSA in % ([10]; 320 g/ha): 90%; Post-emergence action against ECHCG in % ([7]; dosage 80 g/ha): 90%; Post-emergence action against LOLRI in % (Lolium rigidum (LOLRI); dosage 80 g/ha): 90%; Post-emergence action against LOLRI in % (Lolium rigidum (LOLRI); dosage 320 g/ha): 90%; Post-emergence action against MATIN in % [11]: 80%; Post-emergence action against PHBPU in % ([8]; dosage 80 g/ha): 90%; Post-emergence action against SETVI in % (Setaria viridis (SETVI); dosage 80 g/ha): 90%
 |  | 10% |  | 0% | 20% |  |  | CC(C)=NOC(=O)COc1nn(-c2ncccc2F)c(-c2ccc(F)nc2)c1C1CC1 [Example I-366] | 90% | 90% | 80% | 90% | 90% | 80% | 90% | 90% | 80% | 80% | 90% | 80% | Post-emergence action against ABUTH in % ([1]; 80 g/ha): 80%; Post-emergence action against AVEFA in % (Avena fatua (AVEFA); 80 g/ha): 90%; Post-emergence action against DIGSA in % ([10]; 80 g/ha): 80%; Post-emergence action against DIGSA in % ([10]; 320 g/ha): 90%; Post-emergence action against ECHCG in % ([7]; dosage 80 g/ha): 90%; Post-emergence action against LOLRI in % (Lolium rigidum (LOLRI); dosage 80 g/ha): 90%; Post-emergence action against LOLRI in % (Lolium rigidum (LOLRI); dosage 320 g/ha): 90%; Post-emergence action against MATIN in % [11]: 80%; Post-emergence action against PHBPU in % ([8]; dosage 80 g/ha): 80%; Post-emergence action against SETVI in % (Setaria viridis (SETVI); dosage 80 g/ha): 90%
0% | 0% | 0% | 0% |  |  |  | 0% | CCOC(=O)COc1nn(-c2ccccn2)c(-c2ccc(F)nc2)c1C1CC1(F)F (stereo not drawn) [Example I-387] |  |  |  |  |  |  |  |  |  |  |  |  | Post-emergence action against TRZAS in % ([4]; 320 g/ha): 0%
0% | 10% | 0% | 0% | 0% | 0% | 0% | 0% | Cc1ncccc1-n1nc(OCC(=O)O)c(Br)c1-c1cncc(F)c1 [II-38] | 80% | 90% | 90% | 90% | 100% | 80% | 90% | 90% | 80% | 90% | 90% | 80% | 
10% |  | 20% | 20% | 0% | 0% | 20% |  | COC(=O)[C@@H](C)Oc1nn(-c2ncccc2F)c(-c2ccnc(F)c2)c1I [Example I-138] | 80% | 80% | 80% | 80% |  |  |  | 90% | 80% | 80% | 80% |  | Post-emergence action against LOLRI in % (Lolium rigidum (LOLRI); dosage 320 g/ha): 90%
 | 10% |  | 0% |  | 0% | 10% | 0% | COC(=O)CNC(=O)COc1nn(-c2ncccc2C(F)(F)F)c(-c2cncc(F)c2)c1Br [Example I-205] |  |  |  |  |  |  |  |  |  |  |  |  | Pre-emergence action against AMARE in % [12]: 80%; Pre-emergence action against ECHCG in % [13]: 80%; Pre-emergence action against POLCO in % [14]: 80%; Pre-emergence action against VERPE in % [15]: 100%; Pre-emergence action against VIOTR in % (Viola tricolor (VIOTR) [16]): 100%; Post-emergence action against TRZAS in % ([4]; 320 g/ha): 10%
0% | 0% | 0% | 0% | 0% | 0% | 0% | 20% | CCOC(=O)COc1nn(-c2cccnc2C)c(-c2ccc(F)nc2)c1Br [II-46] |  | 90% |  | 90% | 80% |  |  |  |  | 80% |  |  | 
